The record followed here is patent US20130309380A1, “METHODS FOR PRESERVING FRESH PRODUCE” (NatureSeal, Inc., priority 2003, published 2013).

Assay [1] has as its system Bramley apples. Put plainly: Evaluation of sliced Bramley apples: appearance by visual inspection, firmness by bending. The procedure:
(§1) The firmness of the produce in Example 11a were evaluated by bending produce samples. Appearance was evaluated by visual inspection. The moisture was evaluated by measuring the amount of water the produce released.
(§2) Whole Bramley apples free from blemishes or bruises, were rinsed with water, sanitized with a sodium hypochlorite solution having 100 parts per million available chlorine, for two minutes, then peeled, cored, and sliced. The sliced apples were dipped into a fresh produce preservative solution that contained 5.12% strontium ascorbate; the fresh produce preservative solution contained 4.12% ascorbic acid and 1.79% […], for about 30 to 60 seconds. The apples were then drained in a colander for one minute. The apple slices and the colander were placed in 500 micron plastic bags from SunSet Packaging, stored at 4° C. and evaluated several times over a 15 day period. Water which collected in the plastic bag was removed and weighed.
(§3) For comparison, similarly prepared apple slices were placed in one of several solutions that contained either: 4.3% ascorbic acid and 1.13% hydrated MgCO3, specifically 4MgCO3.Mg(OH)25H2O or a 5.0% w/w aqueous solution of calcium ascorbate dihydrate, having a pH of 7.2; or a 5.3% w/w solution, of 4.12% ascorbic acid and 1.17% calcium carbonate,; or 6% ascorbic acid having a pH of 2.3; or 48 g ascorbic acid, 48 g citric acid, 16 g CaCl2 and 48 g NaCl in 800 g water, with a pH of 1.2; or 6% w/w citric acid and 6% w/w ascorbic acid; or 4.64% sodium ascorbate having 4.13% ascorbic acid and 1.18% NaCo3.
Bramley apples were preserved with the fresh produce preservative as in Example 11a except that the preservative solution contained lithium ascorbate. The lithium ascorbate solution was prepared by adding 7.35 grams of lithium carbonate and 35 grams ascorbic acid to 800 grams water.
For comparison, apple slices were placed in one of several comparative solutions: a 5.0% w/w aqueous solution of calcium ascorbate dihydrate containing 42.5 grams of calcium ascorbate dihydrate and 800 grams water with a pH of 7; a 5.3% w/w solution of calcium ascorbate containing 44.94 grams of mixture of 9.95 grams calcium carbonate and 35 grams ascorbic acid in 800 grams water with a pH of 5.5; a comparative solution, containing 48 g ascorbic acid, 48 g citric acid, 16 g CaCl2, 48 g NaCl and 800 g water with a pH of 1.2; a comparative solution of sodium ascorbate containing 28.45 grams of sodium carbonate 35 grams ascorbic acid, 800 grams water having a pH of 6.8; a comparative solution of calcium ascorbate containing 8.75 grams of calcium carbonate, 35 grams ascorbic acid, and to 800 grams water; a comparative solution of calcium ascorbate containing 9.95 grams of calcium carbonate, 35 grams ascorbic acid, and 765 grams water; a comparative solution of magnesium ascorbate containing 9.66 grams of hydrated magnesium carbonate 4MgCO3.Mg(OH)25H2O, 35 grams ascorbic acid, 765 grams water, having a pH of 6.4; and a comparative solution of zinc ascorbate containing 35 grams ascorbic acid, 12.74 grams zinc carbonate and 765 grams water, with a pH of 5.5. The apple slices were evaluated on day five.

The test system of assay [2] is Bramley apples. As to the kind of experiment: Water released by sliced Bramley apples. The procedure: as §1, §2
as §3, with “NaCo3. […]” for “NaCo3.”

With zinc ascorbate, in the assay with Bramley apples [1] (Day 5), the Color entry was “Brown” and the Texture entry is reported as “Very Soft”.

For calcium ascorbate dihydrate, the Texture entry was “Firm” with Bramley apples [1] (28 hr at 4° C.); “Firm” in the assay on Bramley apples [1] (52 hr at 4° C.); “Firm” in the assay with Bramley apples [1] (94 hr at 4° C.); “Firm” in the assay on Bramley apples [1] (191 hr at 4° C.); “Firm” in the assay with Bramley apples [1] (335 hr at 4° C.); “Very Firm” in the assay with Bramley apples [1] (Day 5). For the same compound, in the assay on Bramley apples [1] (335 hr at 4° C.), the “Appearance (visual inspection)” value is given as “Good condition”. For the same compound, the Color result in the assay on Bramley apples [1] (Day 5) was “White”. The “Water Released” value in the assay with Bramley apples [2] (4 hr at 4° C.) amounted to 6.84 g; in the assay with Bramley apples [2] (28 hr at 4° C.) it was 5.88 g; in the assay on Bramley apples [2] (52 hr at 4° C.) it was 5.56 g; in the assay with Bramley apples [2] (94 hr at 4° C.), 4.00 g; with Bramley apples [2] (191 hr at 4° C.), 2.67 g; in the assay with Bramley apples [2] (335 hr at 4° C.), 1.33 g.

For magnesium ascorbate, the Texture result was “Firm” in the assay with Bramley apples [1] (28 hr at 4° C.); “Firm” in the assay on Bramley apples [1] (52 hr at 4° C.); “Firm” in the assay with Bramley apples [1] (94 hr at 4° C.); “Firm” with Bramley apples [1] (191 hr at 4° C.); “Firm and crisp” in the assay on Bramley apples [1] (335 hr at 4° C.); “Very Firm” with Bramley apples [1] (Day 5). For the same compound, in the assay with Bramley apples [1] (335 hr at 4° C.), the “Appearance (visual inspection)” value is recorded as “Good color”. The Color result in the assay with Bramley apples [1] (Day 5) is reported as “White”. Moreover, the “Water Released” value in the assay on Bramley apples [2] (4 hr at 4° C.) amounted to 6.54 g; with Bramley apples [2] (28 hr at 4° C.), 7.07 g; with Bramley apples [2] (52 hr at 4° C.) it was 6.43 g; in the assay with Bramley apples [2] (94 hr at 4° C.), 4.75 g; in the assay with Bramley apples [2] (191 hr at 4° C.) it was 3.73 g; in the assay on Bramley apples [2] (335 hr at 4° C.) it was 2.17 g.

For `O=C1O[C@H]([C@@H](O)CO)C([O-])=C1O.[Na+]` [Sodium Ascorbate, sodium ascorbate], the Texture result with Bramley apples [1] (4 hr at 4° C.), in the assay with Bramley apples [1] (28 hr at 4° C.), with Bramley apples [1] (52 hr at 4° C.), in the assay on Bramley apples [1] (94 hr at 4° C.), with Bramley apples [1] (191 hr at 4° C.) and in the assay on Bramley apples [1] (Day 5) was “Firm” each time. The “Appearance (visual inspection)” value with Bramley apples [1] (335 hr at 4° C.) is “Internal browning on some”. Moreover, the Color entry in the assay with Bramley apples [1] (Day 5) was “White”. Further, the “Water Released” value amounted to 6.58 g in the assay with Bramley apples [2] (4 hr at 4° C.); 6.74 g with Bramley apples [2] (28 hr at 4° C.); 6.67 g with Bramley apples [2] (52 hr at 4° C.); 4.87 g with Bramley apples [2] (94 hr at 4° C.); 4.08 g in the assay on Bramley apples [2] (191 hr at 4° C.); 3.77 g in the assay on Bramley apples [2] (335 hr at 4° C.).
